Test results as given in patent US20070082880A1 (priority 2005, published 2007).

Molecular target: T1, human PKCθ full length enzyme (Homo sapiens, UniProt Q04759)
T1 construct: human PKCθ full length enzyme (Panvera Catalog No. P2996); purchased Panvera P2996
Assay: PKCθ IMAP Assay
Assay type: biochemical
Conditions: average value when one or more samples were tested; ATP 6 uM, PKCθ 1 nM
Outline: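 IMAP fluorescence polarization after 20 min with binding beads measured phosphorylation of 100 nM 5FAM-peptide. Reactions held 1 nM full-length human PKCθ, 6 uM ATP, 5% DMSO and DTT-containing buffer, 25 min at room temperature. Compounds tested as 2:1 serial dilutions; controls lacked ATP or enzyme.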

T1 sequence (Q04759 whole entry): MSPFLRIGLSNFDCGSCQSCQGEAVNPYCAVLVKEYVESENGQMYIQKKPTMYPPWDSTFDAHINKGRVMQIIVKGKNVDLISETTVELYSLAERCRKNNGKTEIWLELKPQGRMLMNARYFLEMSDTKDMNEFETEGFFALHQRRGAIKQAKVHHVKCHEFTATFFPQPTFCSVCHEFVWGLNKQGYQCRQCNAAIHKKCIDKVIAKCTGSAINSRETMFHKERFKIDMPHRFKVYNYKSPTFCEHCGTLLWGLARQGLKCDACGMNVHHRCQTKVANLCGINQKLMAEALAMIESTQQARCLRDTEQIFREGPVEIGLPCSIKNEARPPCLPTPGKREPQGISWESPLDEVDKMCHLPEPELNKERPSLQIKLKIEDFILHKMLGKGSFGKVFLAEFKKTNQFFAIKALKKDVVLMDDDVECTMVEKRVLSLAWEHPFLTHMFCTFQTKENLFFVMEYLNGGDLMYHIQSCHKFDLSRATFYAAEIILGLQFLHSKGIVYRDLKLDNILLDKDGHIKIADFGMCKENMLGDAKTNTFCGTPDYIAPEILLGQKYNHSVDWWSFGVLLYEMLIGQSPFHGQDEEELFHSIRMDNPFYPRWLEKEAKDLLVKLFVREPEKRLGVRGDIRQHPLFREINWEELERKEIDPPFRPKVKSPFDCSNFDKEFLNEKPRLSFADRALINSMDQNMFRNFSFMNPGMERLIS

IC50 [µM]	SMILES
0.616	COC(=O)Nc1ccc(-c2cc3c(Nc4ccc5[nH]ccc5c4C)c(C#N)cnc3s2)cc1 [Compound 333, methyl (4-{5-cyano-4-[(4-methyl-1H-indol-5-yl)amino]thieno[2,3-b]pyridin-2-yl}phenyl)carbamate]
> 12.5	CCCCNC(=O)Nc1ccc(-c2cc3c(Nc4ccc5[nH]ccc5c4)c(C#N)cnc3s2)cc1 [Compound 334, N-butyl-N′-{4-[5-cyano-4-(1H-indol-5-ylamino)thieno[2,3-b]pyridin-2-yl]phenyl}urea]
0.124	CN(C)CCNC(=O)c1cccc(-c2cc3c(Nc4ccc5[nH]ccc5c4)c(C#N)cnc3s2)c1 [Compound 335, 3-[5-cyano-4-(1H-indol-5-ylamino)thieno[2,3-b]pyridin-2-yl]-N-[2-(dimethylamino)ethyl]benzamide]
0.051	N#Cc1cnc2sc(-c3cscc3C=O)cc2c1Nc1ccc2[nH]ccc2c1 [Compound 336, 2-(4-formyl-3-thienyl)-4-(1H-indol-5-ylamino)thieno[2,3-b]pyridine-5-carbonitrile]
0.136	COc1ccc(-c2cc3c(Nc4ccc5[nH]ccc5c4)c(C#N)cnc3s2)cc1C=O [Compound 337, 2-(3-formyl-4-methoxyphenyl)-4-(1H-indol-5-ylamino)thieno[2,3-b]pyridine-5-carbonitrile]
0.014	COc1ccc(C=O)cc1-c1cc2c(Nc3ccc4[nH]ccc4c3C)c(C#N)cnc2s1 [Compound 338, 2-(5-formyl-2-methoxyphenyl)-4-[(4-methyl-1H-indol-5-yl)amino]thieno[2,3-b]pyridine-5-carbonitrile]
0.009	Cc1c(Nc2c(C#N)cnc3sc(-c4cccc(C(=O)NCCN(C)C)c4)cc23)ccc2[nH]ccc12 [Compound 339, 3-{5-cyano-4-[(4-methyl-1H-indol-5-yl)amino]thieno[2,3-b]pyridin-2-yl}-N-[2-(dimethylamino)ethyl]benzamide]
0.026	CC(=O)c1cccc(-c2cc3c(Nc4ccc5[nH]ccc5c4C)c(C#N)cnc3s2)c1 [Compound 340, 2-(3-acetylphenyl)-4-[(4-methyl-1H-indol-5-yl)amino]thieno[2,3-b]pyridine-5-carbonitrile]
0.47	COC(=O)Nc1ccc(-c2cc3c(Nc4ccc5[nH]ccc5c4)c(C#N)cnc3s2)cc1 [Compound 342, methyl {4-[5-cyano-4-(1H-indol-5-ylamino)thieno[2,3-b]pyridin-2-yl]phenyl}carbamate]
0.03	CNS(=O)(=O)c1cccc(-c2cc3c(Nc4ccc5[nH]ccc5c4C)c(C#N)cnc3s2)c1 [Compound 343, 3-{5-cyano-4-[(4-methyl-1H-indol-5-yl)amino]thieno[2,3-b]pyridin-2-yl}-N-methylbenzenesulfonamide]
0.818	CON(C)C(=O)c1cccc(-c2cc3c(Nc4ccc5[nH]ccc5c4)c(C#N)cnc3s2)c1 [Compound 344, 3-[5-cyano-4-(1H-indol-5-ylamino)thieno[2,3-b]pyridin-2-yl]-N-methoxy-N-methylbenzamide]
0.031	Cc1c(Nc2c(C#N)cnc3sc(-c4ccc(S(=O)(=O)NCCN(C)C)cc4)cc23)ccc2[nH]ccc12 [Compound 345, 4-{5-cyano-4-[(4-methyl-1H-indol-5-yl)amino]thieno[2,3-b]pyridin-2-yl}-N-[2-(dimethylamino)ethyl]benzenesulfonamide]
0.048	Cc1c(Nc2c(C#N)cnc3sc(-c4ccc(S(=O)(=O)N(C)CCN(C)C)cc4)cc23)ccc2[nH]ccc12 [Compound 346, 4-{5-cyano-4-[(4-methyl-1H-indol-5-yl)amino]thieno[2,3-b]pyridin-2-yl}-N-[2-(dimethylamino)ethyl]-N-methylbenzenesulfonamide]
0.013	Cc1c(Nc2c(C#N)cnc3sc(-c4cccc(C(C)N(C)C)c4)cc23)ccc2[nH]ccc12 (stereo not shown) [Compound 347, 2-{3-[1-(dimethylamino)ethyl]phenyl}-4-[(4-methyl-1H-indol-5-yl)amino]thieno[2,3-b]pyridine-5-carbonitrile]
0.018	Cc1c(Nc2c(C#N)cnc3sc(-c4cccc(C(=O)N(C)CCN(C)C)c4)cc23)ccc2[nH]ccc12 [Compound 348, 3-{5-cyano-4-[(4-methyl-1H-indol-5-yl)amino]thieno[2,3-b]pyridin-2-yl}-N-[2-(dimethylamino)ethyl]-N-methylbenzamide]
0.016	Cc1c(Nc2c(C#N)cnc3sc(-c4ccc(C(=O)NCCN(C)C)cc4)cc23)ccc2[nH]ccc12 [Compound 349, 4-{5-cyano-4-[(4-methyl-1H-indol-5-yl)amino]thieno[2,3-b]pyridin-2-yl}-N-[2-(dimethylamino)ethyl]benzamide]
0.034	Cc1c(Nc2c(C#N)cnc3sc(-c4ccc(OCCCN(C)C)nc4)cc23)ccc2[nH]ccc12 [Compound 350, 2-{6-[3-(dimethylamino)propoxy]pyridin-3-yl}-4-[(4-methyl-1H-indol-5-yl)amino]thieno[2,3-b]pyridine-5-carbonitrile]

IC50 [µM]	SMILES
0.12	Cc1c(Nc2c(C#N)cnc3sc(-c4ccc(OCCCl)cc4)cc23)ccc2[nH]ccc12 [Compound 351, 2-[4-(2-chloroethoxy)phenyl]-4-[(4-methyl-1H-indol-5-yl)amino]thieno[2,3-b]pyridine-5-carbonitrile]
0.023	Cc1c(Nc2c(C#N)cnc3sc(-c4ccc(NCCN5CCOCC5)nc4)cc23)ccc2[nH]ccc12 [Compound 352, 4-[(4-methyl-1H-indol-5-yl)amino]-2-{6-[(2-morpholin-4-ylethyl)amino]pyridin-3-yl}thieno[2,3-b]pyridine-5-carbonitrile]
0.036	Cc1c(Nc2c(C#N)cnc3sc(-c4cccc(C(=O)N(C)C)c4)cc23)ccc2[nH]ccc12 [Compound 353, 3-{5-cyano-4-[(4-methyl-1H-indol-5-yl)amino]thieno[2,3-b]pyridin-2-yl}-N,N-dimethylbenzamide]
0.018	CON(C)C(=O)c1cccc(-c2cc3c(Nc4ccc5[nH]ccc5c4C)c(C#N)cnc3s2)c1 [Compound 354, 3-{5-cyano-4-[(4-methyl-1H-indol-5-yl)amino]thieno[2,3-b]pyridin-2-yl}-N-methoxy-N-methylbenzamide]
0.048	CON(C)C(=O)c1ccc(-c2cc3c(Nc4ccc5[nH]ccc5c4C)c(C#N)cnc3s2)cc1 [Compound 357, 4-{5-cyano-4-[(4-methyl-1H-indol-5-yl)amino]thieno[2,3-b]pyridin-2-yl}-N-methoxy-N-methylbenzamide]
0.01	CONC(=O)c1ccc(-c2cc3c(Nc4ccc5[nH]ccc5c4C)c(C#N)cnc3s2)cc1 [Compound 358, 4-{5-cyano-4-[(4-methyl-1H-indol-5-yl)amino]thieno[2,3-b]pyridin-2-yl}-N-methoxybenzamide]
0.245	CS(=O)(=O)Nc1cccc(-c2cc3c(Nc4ccc5[nH]ccc5c4)c(C#N)cnc3s2)c1 [Compound 359, N-{3-[5-cyano-4-(1H-indol-5-ylamino)thieno[2,3-b]pyridin-2-yl]phenyl}methanesulfonamide]
0.023	Cc1c(Nc2c(C#N)cnc3sc(-c4cccc(NS(C)(=O)=O)c4)cc23)ccc2[nH]ccc12 [Compound 360, N-(3-{5-cyano-4-[(4-methyl-1H-indol-5-yl)amino]thieno[2,3-b]pyridin-2-yl}phenyl)methanesulfonamide]
0.043	Cc1c(Nc2c(C#N)cnc3sc(-c4ccc(NS(C)(=O)=O)cc4)cc23)ccc2[nH]ccc12 [Compound 361, N-(4-{5-cyano-4-[(4-methyl-1H-indol-5-yl)amino]thieno[2,3-b]pyridin-2-yl}phenyl)methanesulfonamide]
0.072	Cc1c(Nc2c(C#N)cnc3sc(-c4ccc5ccccc5c4)cc23)ccc2[nH]ccc12 [Compound 362, 4-[(4-methyl-1H-indol-5-yl)amino]-2-(2-naphthyl)thieno[2,3-b]pyridine-5-carbonitrile]
0.401	Cc1c(Nc2c(C#N)cnc3sc(-c4cccc5ccccc45)cc23)ccc2[nH]ccc12 [Compound 363, 4-[(4-methyl-1H-indol-5-yl)amino]-2-(1-naphthyl)thieno[2,3-b]pyridine-5-carbonitrile]
0.022	COc1ccccc1-c1cc2c(Nc3ccc4[nH]ccc4c3C)c(C#N)cnc2s1 [Compound 364, 2-(2-methoxyphenyl)-4-[(4-methyl-1H-indol-5-yl)amino]thieno[2,3-b]pyridine-5-carbonitrile]
0.103	Cc1c(Nc2c(C#N)cnc3sc(-c4cc(C=O)cc(OC(C)C)c4)cc23)ccc2[nH]ccc12 [Compound 365, 2-(3-formyl-5-isopropoxyphenyl)-4-[(4-methyl-1H-indol-5-yl)amino]thieno[2,3-b]pyridine-5-carbonitrile]
0.106	COc1ccc(C)cc1-c1cc2c(Nc3ccc4[nH]ccc4c3C)c(C#N)cnc2s1 [Compound 366, 2-(2-methoxy-5-methylphenyl)-4-[(4-methyl-1H-indol-5-yl)amino]thieno[2,3-b]pyridine-5-carbonitrile]
0.007	CCOc1ccc(CN(C)C)cc1-c1cc2c(Nc3ccc4[nH]ccc4c3C)c(C#N)cnc2s1 [Compound 367, 2-{5-[(dimethylamino)methyl]-2-ethoxyphenyl}-4-[(4-methyl-1H-indol-5-yl)amino]thieno[2,3-b]pyridine-5-carbonitrile]
0.1	Cc1ccc(CN(C)C)cc1-c1cc2c(Nc3ccc4[nH]ccc4c3C)c(C#N)cnc2s1 [Compound 368, 2-{5-[(dimethylamino)methyl]-2-methylphenyl}-4-[(4-methyl-1H-indol-5-yl)amino]thieno[2,3-b]pyridine-5-carbonitrile]
0.03	COc1ccc(C(=O)N(C)C)cc1-c1cc2c(Nc3ccc4[nH]ccc4c3C)c(C#N)cnc2s1 [Compound 369, 3-{5-cyano-4-[(4-methyl-1H-indol-5-yl)amino]thieno[2,3-b]pyridin-2-yl}-4-methoxy-N,N-dimethylbenzamide]
